Experiment [1] deals with Beta-1 adrenergic receptor (Homo sapiens) (UniProt P08588).
Experiment [2] deals with T1, Beta-3 adrenergic receptor (Homo sapiens, UniProt P13945). Put plainly: Drug concentration which produces a cAMP response equal to 50% of its maximal response against human beta-3-adrenoceptor using CRE-LUC assay. It is filed as functional.
Target sequence in this assay (P13945 whole entry, looked up): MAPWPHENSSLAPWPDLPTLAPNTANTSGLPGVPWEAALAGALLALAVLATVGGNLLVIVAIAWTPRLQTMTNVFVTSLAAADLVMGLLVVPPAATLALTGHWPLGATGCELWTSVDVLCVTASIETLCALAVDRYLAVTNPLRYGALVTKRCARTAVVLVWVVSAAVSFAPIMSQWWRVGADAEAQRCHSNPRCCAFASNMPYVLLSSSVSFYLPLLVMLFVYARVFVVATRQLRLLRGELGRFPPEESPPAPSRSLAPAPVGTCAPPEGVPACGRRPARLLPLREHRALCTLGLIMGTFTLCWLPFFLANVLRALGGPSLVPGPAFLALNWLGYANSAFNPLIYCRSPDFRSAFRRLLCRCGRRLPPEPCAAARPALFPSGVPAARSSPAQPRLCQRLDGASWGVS
The target of experiment [3] is T1, Beta-3 adrenergic receptor. The experiment is described as follows: Intrinsic activity expressed as the percentage of maximal analogue response relative to the maximal response(100%) of isoproterenol against human beta-3-adrenoceptor using CRE-LUC assay. It is filed as functional.
Target sequence in this assay (P13945 whole entry, looked up): as above
Experiment [4] has as its target Beta-2 adrenergic receptor (Homo sapiens) (UniProt P07550).
Experiment [5] has as its target T1, Beta-3 adrenergic receptor. The experiment is described as follows: Drug concentration which produces cAMP response equal to 50% of its maximal response against human beta 3-adrenoceptor in chinese hamster ovary cells was determined. It counts as functional, cell-based.
Target sequence in this assay (P13945 whole entry, looked up): as above
For experiment [6], the target named is Beta-1 adrenergic receptor (Homo sapiens) (UniProt P08588). Conditions: ovary.
In experiment [7] the target is Beta-2 adrenergic receptor (Homo sapiens) (UniProt P07550). Conditions: ovary.
Beta-2 adrenergic receptor (Homo sapiens), sequence (P07550 whole entry, looked up): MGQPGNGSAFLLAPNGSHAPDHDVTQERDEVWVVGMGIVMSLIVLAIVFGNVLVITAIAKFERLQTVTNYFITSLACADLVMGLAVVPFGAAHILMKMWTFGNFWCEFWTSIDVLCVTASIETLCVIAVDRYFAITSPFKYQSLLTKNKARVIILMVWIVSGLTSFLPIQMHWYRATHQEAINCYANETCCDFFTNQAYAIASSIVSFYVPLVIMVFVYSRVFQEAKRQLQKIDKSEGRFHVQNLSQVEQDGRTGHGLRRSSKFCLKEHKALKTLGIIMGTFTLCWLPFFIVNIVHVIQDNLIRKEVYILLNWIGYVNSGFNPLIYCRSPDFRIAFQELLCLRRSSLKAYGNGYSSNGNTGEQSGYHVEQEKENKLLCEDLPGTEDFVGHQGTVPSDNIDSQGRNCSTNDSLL
The target is the same in experiment [8]. Conditions: ovary. This is another data set of the same source.
The target of experiment [9] is T1, Beta-3 adrenergic receptor. To be noted: ovary.
Target sequence in this assay (P13945 whole entry, looked up): as the sequence (P13945 whole entry, looked up) above
Description: Drug concentration which produces cAMP response equal to 50% of its maximal response against human beta-3-adrenoceptor expressed in chinese hamster ovary cells was determined
Experiment [10] concerns the target Beta-1 adrenergic receptor (Homo sapiens) (UniProt P08588). Conditions: ovary. The source holds these as a separate data set.
Description: Drug concentration which produces cAMP response equal to 50% of its maximal response against human beta-1-adrenoceptor in chinese hamster ovary cells was determined
The target of experiment [11] is Beta-2 adrenergic receptor (Homo sapiens) (UniProt P07550). The experiment is described as follows: Drug concentration which produces cAMP response equal to 50% of its maximal response against human beta-2-adrenoceptor in chinese hamster ovary cells was determined; Not active. It counts as functional, cell-based.
The target of experiment [12] is Beta-1 adrenergic receptor (Homo sapiens) (UniProt P08588). Put plainly: Intrinsic activity expressed as the percentage of maximal analogue response relative to the maximal response(100%) of isoproterenol against human beta-1-adrenoceptor. It is filed as functional.
Experiment [13] has as its target T1, Beta-3 adrenergic receptor. The experiment is described as follows: Intrinsic activity expressed as the percentage of maximal analogue response relative to the maximal response(100%) of isoproterenol against human beta-3-adrenoceptor. It is filed as functional.
Target sequence in this assay (P13945 whole entry, looked up): as above
Experiment [14] addresses T1, Beta-3 adrenergic receptor. Put plainly: Drug concentration which produces cAMP response equal to 50% of its maximal response against human beta-3-adrenoceptor in chinese hamster ovary cells was determined; Not active. It counts as functional, cell-based.
Target sequence in this assay (P13945 whole entry, looked up): as above
The target in experiment [15] is Beta-1 adrenergic receptor (Homo sapiens) (UniProt P08588). The experiment is described as follows: Intrinsic activity expressed as the percentage of maximal analogue response relative to the maximal response(100%) of isoproterenol against human beta-1-adrenoceptor using CRE-LUC assay. It counts as functional.
For experiment [16], the target named is T1, Beta-3 adrenergic receptor. The experiment is described as follows: Binding Affinity against human Beta-3 adrenergic receptor expressed in Chinese hamster ovary(CHO) cells was measured by using [125I]ICYP radioligand. It is filed as cell-based.
Target sequence in this assay (P13945 whole entry): as the sequence (P13945 whole entry, looked up) above

Activity calls are given as the source filed them. The calls are words filed in the database; no cut-off is given here.

Beta-1 adrenergic receptor (Homo sapiens), sequence (P08588 whole entry, looked up): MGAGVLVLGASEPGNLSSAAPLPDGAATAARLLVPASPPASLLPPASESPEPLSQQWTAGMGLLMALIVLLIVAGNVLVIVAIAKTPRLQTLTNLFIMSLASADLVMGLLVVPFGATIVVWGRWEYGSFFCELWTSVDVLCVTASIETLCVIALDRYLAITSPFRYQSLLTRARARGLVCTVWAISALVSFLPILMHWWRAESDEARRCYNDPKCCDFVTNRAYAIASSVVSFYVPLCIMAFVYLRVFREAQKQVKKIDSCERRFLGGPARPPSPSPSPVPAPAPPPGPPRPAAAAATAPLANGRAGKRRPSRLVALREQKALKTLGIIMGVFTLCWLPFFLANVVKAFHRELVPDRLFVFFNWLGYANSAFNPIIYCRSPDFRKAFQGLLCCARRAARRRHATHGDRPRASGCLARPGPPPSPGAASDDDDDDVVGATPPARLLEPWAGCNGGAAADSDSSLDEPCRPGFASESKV

Consider `COc1c(I)cc(CC2NCCc3nc(N)sc32)cc1I` (stereo not drawn), for which the pKact entry in experiment [1], in experiment [4], in experiment [6] and in experiment [7] was “inactive” in each case. In addition, the pKact in experiment [2] turned out to be 6.71; in [5], 6.95. Also, the Intrinsic activity in experiment [3] was found to be 62.

`COc1cc(C[C@@H]2NCCc3cc(O)c(O)cc32)cc(OC)c1OC`: the pKact in experiment [8] was 8.33; in experiment [9], 8.6; in experiment [10] it was 8.7.

Regarding `COc1cc(CC2NCCc3nc(N)sc32)cc(OC)c1OC` (stereo not drawn), the pKact entry in experiment [11] and in experiment [6] was “inactive” in each case. For the same compound, the Intrinsic activity is under 10 in experiment [12] and 54 in experiment [13]. The pKact in [9] came out at 5.06.

Regarding `COc1cc(CCNCCc2cnc(N)s2)cc(OC)c1OC`, the pKact entry in experiment [11], in experiment [14] and in experiment [6] was “inactive” each time. The Intrinsic activity in [3] and in [15] was under 10 in each case.

For `CC(C)NCC(O)c1ccc(O)c(O)c1` (stereo not drawn), the pKact in [9] was found to be 7.37.

As a reminder, the Ki is a dissociation constant, usually derived from enzyme kinetics or from competition with a known ligand. The low end stands for tighter binding, the high end for weaker binding. Consider `COc1c(I)cc(CC2NCCc3cc(O)c(O)cc32)cc1I` (stereo not drawn), for which the results for the pKact in experiment [8], in experiment [9] and in experiment [10] were 8.47, 8.76 and 8.11, respectively. The compound further had a Ki in [16] of 21.4 nM.

For `COc1c(I)cc(CC2NCCc3nc(NC(C)=O)sc32)cc1I` (stereo not drawn), the pKact result in experiment [11], in [14] and in [6] was “inactive” in each case.

The values are drawn from ChEMBL document CHEMBL1132639, “2-Amino-4-benzyl-4,5,6,7-tetrahydrothiazolo[5,4-c]pyridines: novel selective beta3-adrenoceptor agonists” (J Med Chem, 1999).
